The subject of data set [1] is hypoxia transcriptional response (HIF). The data set can be described thus: Hypoxia biomarkers in mice (plasma Epo, hematocrit, blood glucose, hypoxia-induced brain transcripts). Format: in vivo, mouse. As for the experimental part: Plasma Epo measurements were performed with R&D Systems Epo Elisa Kit (MEP00B) according to manufacturer directions. Briefly, whole blood was collected with anticoagulant before centrifugation within 30 minutes of collection and stored at −80C until day of analysis. On the day of Epo assay, samples were thawed and diluted 2-fold and incubated in the assay plate for two hours. Each well was washed five times before the addition of Epo Conjugate followed by a two-hour incubation. Each well was washed five times before adding Substrate Solution to develop for 30 minutes before addition of Stop Solution. The optical density of each well was determined at 450nm and correction wavelength of 540/570.
Hematocrit was determined with an iStat VetScan 1 with Zoetis Chem 8+ cartridges. Blood glucose measurements were performed using OneTouch UltraPlus glucometer. Whole blood chemistry measurements were performed on a VetScan HM5.
Half of the hindbrain was collected at necropsy and immediately flash frozen. For RNA extraction, a stainless-steel bead (Qiagen) and 1 mL TRIzol™ Reagent (Thermo Fisher Scientific) were added to the frozen samples, which were rapidly lysed using a tissue lyser (Qiagen) for five 1-minute cycles of 30 Hz frequency. Subsequent steps for RNA isolation were identical as previously described.[9] Reverse transcription was performed using the QuantiTect Reverse Transcription Kit (Qiagen) instructions. Briefly, gDNA was wiped out from samples containing 1 μg RNA. gDNA-free RNA samples were reverse transcribed following Qiagen’s instructions. […] For each set of triplicates, an average CT value was obtained, and the difference in average CT between the target gene and β-actin was calculated (ΔCT). Next, the difference in ΔCT value between each sample and the average of the normoxia samples was calculated (ΔΔCT). Relative expression of each gene was determined by calculating 2^−ΔΔCT.

Data set [2] in a line: Stability of dosing suspension. Particulars: suspension in 0.5% HPMC, stored at 4 °C. Format: physicochemical. As for the experimental part: Mice were administered HypoxyStat at 600 mg/kg every other day or 400mg/kg daily via oral gavage. For the disease prevention experiments, KO mice that underwent daily dosing were dosed starting ~P30 for 1 week of 200mg/kg daily, followed by 400mg/kg daily to allow for gradual dose escalation. For the reversal study, KO mice were dosed once with 200mg/kg on postnatal day ~P55, followed by 400mg/kg daily. HypoxyStat was formulated as a suspension at 60 mg/mL, 40mg/ml or 80mg/ml depending on dose in 0.5%HPMC and stored at 4 °C. The formulation was determined to be stable for at least 8 weeks. Animal body weight was taken at time of dosing to determine appropriate dosing volume (10 mL/kg for every other day dosing, 5ml/kg for daily dosing). Vehicle treated mice were administered the same volume of 0.5% HPMC.

Structures are written as SMILES.

On to `O=Cc1ccccc1C(=O)N1CCCC[C@H]1COc1cccc(O)c1C=O` [HypoxyStat], for which, in data set [1] (400 mg/kg daily, 48 h, compared with inhaled hypoxia (11% O2)), the “circulating Epo and 5 hypoxia-induced transcripts in hindbrain” value was “induced to an equivalent or greater degree”. In addition, in data set [1] (oral gavage 3 times per week for 12 days, up to 600 mg/kg), the “Epo and hematocrit with increasing dose” value was “substantial increases in both Epo and hematocrit”. Further, the stability of formulation result in data set [2] is listed as “at least 8 weeks”.

These data come from paper PMC12186697, “HypoxyStat, a small-molecule form of hypoxia therapy that increases oxygen-hemoglobin affinity” (Cell, 2025).
